Source: patent publication US9278922B2 (ABBVIE INC., priority 2009, dated 2016)

What follows are molecules tested on HCV 1b-Con-1 replicon (assay: HCV 1b-Con-1 replicon assay (luciferase reporter gene, HuH-7 cells)). Settings: Hepatitis C virus, Huh-7, luciferase reporter gene activity in the replicon, in the presence of 5% FBS.
Type: cell-based, Hepatitis C virus (HCV) genotype 1b-Con1

Row | Structure (SMILES) | EC50 [nM]
1 | COC(=O)N[C@H](C(=O)N1CCC[C@H]1C(=O)Nc1ccc(CN(Cc2ccc3[nH]c([C@@H]4CCCN4C(=O)[C@@H](NC(=O)OC)C(C)(C)O)nc3c2)c2ccc(F)cc2)cc1)C(C)(C)O [Example 99, 3-hydroxy-N-(methoxycarbonyl)-L-valyl-N-[4-({(4-fluorophenyl)[(2-{(2S)-1-[3-hydroxy-N-(methoxycarbonyl)-L-valyl]pyrrolidin-2-yl}-1H-benzimidazol-5-yl)methyl]amino}methyl)phenyl]-L-prolinamide] | < 1
2 | COC(=O)N[C@H](C(=O)N1CC[C@H]1C(=O)Nc1ccc(CN(Cc2ccc(NC(=O)[C@@H]3CCN3C(=O)[C@@H](NC(=O)OC)C(C)(C)C)cc2)c2ccc(F)cc2)cc1)C(C)(C)C [Example 100, methyl [(1S)-1-{[(2S)-2-{[4-({(4-fluorophenyl)[4-({[(2S)-1-{(2S)-2-[(methoxycarbonyl)amino]-3,3-dimethylbutanoyl}azetidin-2-yl]carbonyl}amino)benzyl]amino}methyl)phenyl]carbamoyl}azetidin-1-yl]carbonyl}-2,2-dimethylpropyl]carbamate] | 1 to 10
3 | COC(=O)N[C@H](C(=O)N1CCCC[C@H]1C(=O)Nc1ccc(CN(Cc2ccc(NC(=O)[C@@H]3CCCCN3C(=O)[C@@H](NC(=O)OC)C(C)(C)C)cc2)c2ccc(F)cc2)cc1)C(C)(C)C [Example 101, methyl [(1S)-1-{[(2S)-2-{[4-({(4-fluorophenyl)[4-({[(2S)-1-{(2S)-2-[(methoxycarbonyl)amino]-3,3-dimethylbutanoyl}piperidin-2-yl]carbonyl}amino)benzyl]amino}methyl)phenyl]carbamoyl}piperidin-1-yl]carbonyl}-2,2-dimethylpropyl]carbamate] | < 1
4 | O=C(Nc1ccc(CN(Cc2ccc(NC(=O)[C@@H]3C[C@@H](F)CN3C(=O)[C@@H](c3ccccc3)N3CCCCC3)cc2)c2ccc(F)cc2)cc1)[C@@H]1C[C@@H](F)CN1C(=O)[C@@H](c1ccccc1)N1CCCCC1 [Example 102, (2S,4R,2′S,4′R)-N,N′-{[(4-fluorophenyl)imino]bis(methanediylbenzene-4,1-diyl)}bis{4-fluoro-1-[(2R)-2-phenyl-2-piperidin-1-ylacetyl]pyrrolidine-2-carboxamide}] | < 1
5 | COC(=O)N[C@H](C(=O)N1C[C@H](F)C[C@H]1C(=O)Nc1ccc(CN(Cc2ccc(NC(=O)[C@@H]3C[C@@H](F)CN3C(=O)[C@@H](NC(=O)OC)C(C)(C)C)cc2)c2ccc(F)cc2)cc1)C(C)(C)C [Example 103] | < 1
6 | COC(=O)N[C@H](C(=O)N1CCC[C@H]1C(=O)Nc1ccc(CN(Cc2ccc(NC(=O)[C@@H]3CCCN3C(=O)[C@@H](NC(=O)OC)C3CCCCC3)cc2)c2ccc(F)cc2)cc1)C1CCCCC1 [Example 104, dimethyl ([(4-fluorophenyl)imino]bis{methanediylbenzene-4,1-diylcarbamoyl(25)pyrrolidine-2,1-diyl[(1S)-1-cyclohexyl-2-oxoethane-2,1-diyl]})biscarbamate] | < 1
7 | CCC(O)(CC)C(C(=O)N1CCC[C@H]1C(=O)Nc1ccc(CN(Cc2ccc(NC(=O)[C@@H]3CCCN3C(=O)C(c3ccccc3)C(O)(CC)CC)cc2)c2ccc(F)cc2)cc1)c1ccccc1 (stereo partly drawn) [Example 105, (2S,2′S)-N,N′-{[(4-fluorophenyl)imino]bis(methanediylbenzene-4,1-diyl)}bis[1-(3-ethyl-3-hydroxy-2-phenylpentanoyl)pyrrolidine-2-carboxamide]] | < 1
8 | O=C(Nc1ccc(CN(Cc2ccc(NC(=O)[C@@H]3CCCN3C(=O)C(c3ccccc3)C3(O)CCCC3)cc2)c2ccc(F)cc2)cc1)[C@@H]1CCCN1C(=O)C(c1ccccc1)C1(O)CCCC1 (stereo partly drawn) [Example 106, (2S ,2′S)-N,N′-{[(4-fluorophenyl)imino]bis(methanediylbenzene-4,1-diyl)}bis{1-[(1-hydroxycyclopentyl)(phenyl)acetyl]pyrrolidine-2-carboxamide}] | < 1
9 | O=C(Nc1ccc(CN(Cc2ccc(NC(=O)[C@@H]3CCCN3C(=O)C(c3ccccc3)C3CCCC3)cc2)c2ccc(F)cc2)cc1)[C@@H]1CCCN1C(=O)C(c1ccccc1)C1CCCC1 (stereo partly drawn) [Example 107, (2S,2′S)-N,N′-{[(4-fluorophenyl)imino]bis(methanediylbenzene-4,1-diyl)}bis{1-[cyclopentyl(phenyl)acetyl]pyrrolidine-2-carboxamide}] | 10 to 100
10 | CC(C)C(C(=O)N1CCC[C@H]1C(=O)Nc1ccc(CN(Cc2ccc(NC(=O)[C@@H]3CCCN3C(=O)C(c3ccccc3)C(C)C)cc2)c2ccc(F)cc2)cc1)c1ccccc1 (stereo partly drawn) [Example 108, (2S,2′S)-N,N′-{[(4-fluorophenyl)imino]bis(methanediylbenzene-4,1-diyl)}bis[1-(3-methyl-2-phenylbutanoyl)pyrrolidine-2-carboxamide]] | 1 to 10
11 | COC(=O)N[C@H](C(=O)N1C[C@@H]2C[C@@H]2[C@H]1C(=O)Nc1ccc(CN(Cc2ccc(NC(=O)[C@@H]3[C@H]4C[C@H]4CN3C(=O)[C@@H](NC(=O)OC)C(C)(C)C)cc2)c2ccc(F)cc2)cc1)C(C)(C)C [Example 109, methyl [(1S)-1-{[(1S,2S,5R)-2-{[4-({(4-fluorophenyl)[4-({[(1S,2S,5R)-3-{(2S)-2-[(methoxycarbonyl)amino]-3,3-dimethylbutanoyl}-3-azabicyclo[3.1.0]hex-2-yl]carbonyl}amino)benzyl]amino}methyl)phenyl]carbamoyl}-3-azabicyclo[3.1.0]hex-3-yl]carbonyl}-2,2-dimethylpropyl]carbamate] | 10 to 100
12 | O=C(Nc1ccc(CN(Cc2ccc(NC(=O)[C@@H]3CCCN3C(=O)[C@H](O)c3ccccc3)cc2)c2ccc(F)cc2)cc1)[C@@H]1CCCN1C(=O)[C@H](O)c1ccccc1 [Example 110, (2S ,2′S)-N,N′-{[(4-fluorophenyl)imino]bis(methanediylbenzene-4,1-diyl)}bis{1-[(2R)-2-hydroxy-2-phenylacetyl]pyrrolidine-2-carboxamide}] | < 1
13 | CC(C)(C)[C@H](Nc1ncccn1)C(=O)N1CCC[C@H]1C(=O)Nc1ccc(CN(Cc2ccc(NC(=O)[C@@H]3CCCN3C(=O)[C@@H](Nc3ncccn3)C(C)(C)C)cc2)c2ccccc2)cc1 [Example 111, (2S,2′S)-N,N′-[(phenylimino)bis(methanediylbenzene-4,1-diyl)]bis{1-[(2S)-3,3-dimethyl-2-(pyrimidin-2-ylamino)butanoyl]pyrrolidine-2-carboxamide}] | 1 to 10
14 | CC[C@H](NC(=O)OC)C(=O)N1CCC[C@H]1C(=O)Nc1ccc(CN(Cc2ccc(NC(=O)[C@@H]3CCCN3C(=O)[C@H](CC)NC(=O)OC)cc2)c2ccc(F)cc2)cc1 [Example 112, dimethyl ([(4-fluorophenyl)imino]bis{methanediylbenzene-4,1-diylcarbamoyl(25)pyrrolidine-2,1-diyl[(2S)-1-oxobutane-1,2-diyl]})biscarbamate] | 1 to 10
15 | CC(=O)O[C@H](C(=O)N1CCC[C@H]1C(=O)Nc1ccc(CN(Cc2ccc(NC(=O)[C@@H]3CCCN3C(=O)[C@H](OC(C)=O)c3ccccc3)cc2)c2ccc(F)cc2)cc1)c1ccccc1 [Example 113, [(4-fluorophenyl)imino]bis[methanediylbenzene-4,1-diylcarbamoyl(2S)pyrrolidine-2,1-diyl(1R)-2-oxo-1-phenylethane-2,1-diyl]diacetate] | < 1
16 | COC(=O)N[C@H](C(=O)N1CCC[C@H]1C(=O)Nc1ccc(CN(Cc2ccc(NC(=O)[C@@H]3CCCN3C(=O)[C@@H](c3ccccc3)N3CCCCC3)cc2)c2ccc(F)cc2)cc1)[C@H]1CCOC1 [Example 114, methyl {(1S)-2-{(2S)-2-[(4-{[(4-fluorophenyl){4-[({(2S)-1-[(2R)-2-phenyl-2-piperidin-1-ylacetyl]pyrrolidin-2-yl}carbonyl)amino]benzyl}amino]methyl}phenyl)carbamoyl]pyrrolidin-1-yl}-2-oxo-1-[(3R)-tetrahydrofuran-3-yl]ethyl}carbamate] | < 1
17 | CC[C@H](NC(=O)OC)C(=O)N1CCC[C@H]1C(=O)Nc1ccc(CN(Cc2ccc(NC(=O)[C@@H]3CCCN3C(=O)[C@@H](c3ccccc3)N3CCCCC3)cc2)c2ccc(F)cc2)cc1 [Example 115, methyl [(1S)-1-({(2S)-2-[(4-{[(4-fluorophenyl){4-[({(2S)-1-[(2R)-2-phenyl-2-piperidin-1-ylacetyl]pyrrolidin-2-yl}carbonyl)amino]benzyl}amino]methyl}phenyl)carbamoyl]pyrrolidin-1-yl}carbonyl)propyl]carbamate] | < 1
18 | O=C(Nc1ccc(CN(Cc2ccc(NC(=O)[C@@H]3CCCN3C(=O)C(c3ccccc3)N3CC[C@@H](F)C3)cc2)c2ccc(F)cc2)cc1)[C@@H]1CCCN1C(=O)C(c1ccccc1)N1CC[C@@H](F)C1 (stereo partly drawn) [Example 116, (2S,2′S)-N,N′-{[(4-fluorophenyl)imino]bis(methanediylbenzene-4,1-diyl)}bis(1-{[(3R)-3-fluoropyrrolidin-1-yl](phenyl)acetyl}pyrrolidine-2-carboxamide)] | < 1
19 | O=C(Nc1ccc(CN(Cc2ccc(NC(=O)[C@@H]3CCCN3C(=O)C(c3ccccc3)N3CC[C@H](F)C3)cc2)c2ccc(F)cc2)cc1)[C@@H]1CCCN1C(=O)C(c1ccccc1)N1CC[C@H](F)C1 (stereo partly drawn) [Example 119, (2S,2′S)-N,N′-{[(4-fluorophenyl)imino]bis(methanediylbenzene-4,1-diyl)}bis(1-{[(3S)-3-fluoropyrrolidin-1-yl](phenyl)acetyl}pyrrolidine-2-carboxamide)] | < 1
20 | CC(C)(C)[C@H](Nc1nccs1)C(=O)N1CCC[C@H]1C(=O)Nc1ccc(CN(Cc2ccc(NC(=O)[C@@H]3CCCN3C(=O)[C@@H](Nc3nccs3)C(C)(C)C)cc2)c2ccccc2)cc1 [Example 121, (2S,2′S)-N,N′-[(phenylimino)bis(methanediylbenzene-4,1-diyl)]bis{1-[(2S)-3,3-dimethyl-2-(1,3-thiazol-2-ylamino)butanoyl]pyrrolidine-2-carboxamide}] | < 1
21 | CCN(C(C)=O)[C@@H](C(=O)N1CCC[C@H]1C(=O)Nc1ccc(CN(Cc2ccc(NC(=O)[C@@H]3CCCN3C(=O)[C@@H](c3ccccc3)N(CC)C(C)=O)cc2)c2ccc(F)cc2)cc1)c1ccccc1 [Example 122, (2S,2′S)-N,N′-{[(4-fluorophenyl)imino]bis(methanediylbenzene-4,1-diyl)}bis(1-{(2R)-2-[acetyl(ethyl)amino]-2-phenylacetyl}pyrrolidine-2-carboxamide)] | 10 to 100
